Data as given in patent publication US20220088024A1, “METHODS FOR TREATING CANCER USING TOZADENANT” (Biotie Therapies, Inc., priority 2018, published 2022).
Where “and” joins values, the source holds several entries; their conditions need not be identical. Equal values may be shown once.

Assays:
[1] = test system: AT-3ova CD73+ tumour (mouse breast carcinoma cell line AT-3); assay: Example 3: anti-tumor responses of SYN-115 QD or BID in the AT-3ova CD73+ tumour cell mouse model (tumor area); assay type: in vivo, C57/BL6 mice; set-up: key to Raw Tumor Measurements: tumor area, width × length in mm^2
Protocol: (§1) The C57BL/6 mouse breast carcinoma cell line AT-3 was obtained from Dr. Trina Stewart (Griffith University, Nathan, QLD, Australia. Tumor cell lines were transduced to express chicken ovalbumin peptide and CD73 as previously described (1, 2, 3). Tumor cells are periodically verified to be Mycoplasma negative by the Victorian Infectious Diseases References Lab (Melbourne, VIC, Australia) by PCR analysis. Tumor cells were grown in DMEM supplemented with 10% FCS, GlutaMAX, and penicillin/streptomycin. 5×10^5 cells were resuspended in PBS and injected s.c. into C57/BL6 mice in a 100 μL volume. At day 14 tumors were measured and mice were randomized into distinct treatment groups to ensure that each group had tumors of similar size at the onset of treatment. Mice were treated i.p. at days 14, 18, 22, and 26 with either isotype control (2A3; 200 μg/mouse) or anti-PD-1 mAb (RMP1-14, 200 μg/mouse) and where indicated SYN-115 (Batch 71236AA002) at the indicated dose or vehicle control once or twice-daily via oral gavage on days 14 to 29. To calculate a dose of SYN-115 mouse weight was estimated to be 20 g per mouse. Therefore, 100 mg/kg=2 mg per mouse in 200 which is equivalent to 10 mg/ml. To make up 40 mL, 400 milligrams of SYN-115 was weighed and added into a Falcon tube, then 1 mL of Tween 80 was added and mixed into a paste and then 39 mL of 1% Methyl Cellulose was added. The solution was vortexed and then left on a rotating mixer for at least 2 hours and maintained at 4° C. Tumor measurements were taken 2-3 times per week. Tumor sizes were determined by width * length and mice were culled when tumors reached the ethical limit of 150 mm^2.

[2] = test system: AT-3ova CD73+ tumour (mouse breast carcinoma cell line AT-3); assay: Example 2: anti-tumor responses of SYN-115 in the AT-3ova CD73+ tumour cell mouse model (tumor area); assay type: in vivo, C57/BL6 mice
Protocol: as §1, with “and where indicated, SYN-115 (Batch” for “and where indicated SYN-115 (Batch”, “vehicle control once-daily via oral” for “vehicle control once or twice-daily via oral”, “in 200 μL, which is” for “in 200 which is”, “left on rotating mixer” for “left on a rotating mixer”

[3] = test system: B16F10 CD73 melanoma metastases; assay: Example 9: number of lung tumor metastases in the B16F10 CD73 tumor mouse model; assay type: in vivo, C57/BL6 mice (A2A-/- or Wild-Type)
Protocol: The C57/BL6 mouse melanoma cell line B16F10 CD73 was cultured in DMEM supplemented with 10% FCS, GlutaMAX, and penicillin/streptomycin. Tumor cells are periodically verified to be Mycoplasma negative by the Victorian Infectious Diseases References
Lab (Melbourne, VIC, Australia) by PCR analysis. 2×10^5 cells were resuspended in PBS and injected i.v. into C57/BL6 mice (A2A^−/− or Wild-Type) in a 200 μL volume. At day 14 lungs were excised and the number of metastases counted under the dissecting microscope. Mice were dosed with either SYN-115 (Batch 71236AA002) at 100 mg/kg or vehicle control once-daily via oral gavage on days 0 to 13. To calculate a dose of SYN-115 mouse weight was estimated to be 20 g per mouse. Therefore, 100 mg/kg=2 mg per mouse in 200 μL, which is equivalent to 10 mg/ml. To make up 40 mL, 400 milligrams of SYN-115 was weighed and added into a Falcon tube, then 1 mL of Tween 80 was added and mixed into a paste and then 39 mL of 1% Methyl Cellulose was added. The solution was vortexed and then left on a rotating mixer for at least 2 hours and maintained at 4° C.

With COc1ccc(N2CCOCC2)c2sc(NC(=O)N3CCC(C)(O)CC3)nc12 [SYN-115, 4-hydroxy-4-methyl-piperidine-1-carboxylic acid (4-methoxy-7-morpholin-4-yl-benzothiazol-2-yl)-amide] the “Tumor size (width * length)” value ([1]; 2A3 (200 ug/mouse)+SYN-115 (100 mg/kg) QD, Day 0) was 19.38 mm^2 and 14.96 mm^2 and 20 mm^2 and 24.38 mm^2 and 13.26 mm^2 and 18.9 mm^2, the “Tumor size (width * length)” value ([1]; 2A3 (200 ug/mouse)+SYN-115 (100 mg/kg) QD, Day 31) was 73.1 mm^2 and the “Tumor size (width * length)” value ([1]; 2A3 (200 ug/mouse)+SYN-115 (100 mg/kg) QD, Day 34) was 74.82 mm^2. For the same molecule, the “Tumor size (width * length)” value ([1]; 2A3 (200 ug/mouse)+SYN-115 (100 mg/kg) QD, Day 39) was 86.45 mm^2, the “Tumor size (width * length)” value ([1]; 2A3 (200 ug/mouse)+SYN-115 (100 mg/kg) QD, Day 42) was 129.87 mm^2 and the “Raw Tumor Measurements” value ([1]; Anti-PD-1 (200 ug)+SYN-115 (30 mg/kg) BID, Day 0) was 12.6 and 15.54 and 22 and 16.38 and 22.68 and 18.36. For the same molecule, the “Raw Tumor Measurements” value ([1]; Anti-PD-1 (200 ug)+SYN-115 (30 mg/kg) BID, Day 17) was 44.08 and 44.22 and 73.92 and 38.86 and 63.24 and 66.64, the “Raw Tumor Measurements” value ([1]; Anti-PD-1 (200 ug)+SYN-115 (30 mg/kg) BID, Day 31) was 111.28 and 64.74 and the “Raw Tumor Measurements” value ([1]; Anti-PD-1 (200 ug)+SYN-115 (30 mg/kg) BID, Day 34) was 73.1. The “Raw Tumor Measurements” value ([1]; Anti-PD-1 (200 ug)+SYN-115 (30 mg/kg) BID, Day 39) was 69.6, the “Raw Tumor Measurements” value ([1]; Anti-PD-1 (200 ug)+SYN-115 (30 mg/kg) BID, Day 42) was 99.51 and the “Raw Tumor Measurements” value ([1]; Anti-PD-1 (200 ug)+SYN-115 (30 mg/kg) BID, Day 44) was 114.33. The “Tumor size (width * length)” value ([1]; Anti-PD-1 (200 ug)+SYN-115 (30 mg/kg) QD, Day 28) was 58.5 mm^2 and 63.99 mm^2 and 113.1 mm^2, the “Tumor size (width * length)” value ([1]; Anti-PD-1 (200 ug)+SYN-115 (30 mg/kg) QD, Day 31) was 57.76 mm^2 and 74.82 mm^2 and the “Tumor size (width * length)” value ([1]; Anti-PD-1 (200 ug)+SYN-115 (30 mg/kg) QD, Day 34) was 72.8 mm^2 and 93.06 mm^2. The “Tumor size (width * length)” value ([1]; Anti-PD-1 (200 ug)+SYN-115 (30 mg/kg) QD, Day 39) was 83.42 mm^2 and 127 mm^2, the “Tumor size (width * length)” value ([1]; Anti-PD-1 (200 ug)+SYN-115 (30 mg/kg) QD, Day 42) was 127.53 mm^2 and the “Raw Tumor Measurements” value ([1]; Anti-PD-1 (200 ug)+SYN-115 (100 mg/kg) BID, Day 0) was 16.28 and 15.96 and 20.46 and 16.8 and 24.12 and 12.24. The “Raw Tumor Measurements” value ([1]; Anti-PD-1 (200 ug)+SYN-115 (100 mg/kg) BID, Day 22) was 49.92 and 83.7 and 67.45 and 51.48 and 75.64 and 82.39, the “Raw Tumor Measurements” value ([1]; Anti-PD-1 (200 ug)+SYN-115 (100 mg/kg) BID, Day 28) was 66.96 and 98.79 and 88.4 and 132.3 and 118.34 and the “Raw Tumor Measurements” value ([1]; Anti-PD-1 (200 ug)+SYN-115 (100 mg/kg) BID, Day 31) was 79.38 and 102.08 and 109.44. The “Raw Tumor Measurements” value ([1]; Anti-PD-1 (200 ug)+SYN-115 (100 mg/kg) BID, Day 34) was 99.36, the “Raw Tumor Measurements” value ([1]; Anti-PD-1 (200 ug)+SYN-115 (100 mg/kg) BID, Day 39) was 103.55 and the “Raw Tumor Measurements” value ([1]; Anti-PD-1 (200 ug)+SYN-115 (100 mg/kg) QD, Day 0) was 14.82 and 14.76 and 15.17 and 15.12 and 23.78. For the same molecule, the “Raw Tumor Measurements” value ([1]; Anti-PD-1 (200 ug)+SYN-115 (100 mg/kg) QD, Day 9) was 29.07 and 25 and 29.68 and 26 and 34.78 and 29.25, the “Raw Tumor Measurements” value ([1]; Anti-PD-1 (200 ug)+SYN-115 (100 mg/kg) QD, Day 13) was 32.45 and 39.33 and 38.19 and 25.48 and 40.7 and 33.5 and the “Raw Tumor Measurements” value ([1]; Anti-PD-1 (200 ug)+SYN-115 (100 mg/kg) QD, Day 15) was 39.33 and 42 and 44.2 and 32.86 and 50.74 and 25.85. For the same molecule, the “Raw Tumor Measurements” value ([1]; Anti-PD-1 (200 ug)+SYN-115 (100 mg/kg) QD, Day 17) was 39.53 and 44.4 and 48 and 31.35 and 52.92 and 44.73, the “Raw Tumor Measurements” value ([1]; Anti-PD-1 (200 ug)+SYN-115 (100 mg/kg) QD, Day 20) was 48.28 and 61.56 and 66.6 and 48.99 and 61.2 and 51.2 and the “Raw Tumor Measurements” value ([1]; Anti-PD-1 (200 ug)+SYN-115 (100 mg/kg) QD, Day 24) was 51.83 and 72.98 and 86.92 and 53.96 and 85.05 and 46.8. For the same molecule, the “Raw Tumor Measurements” value ([1]; Anti-PD-1 (200 ug)+SYN-115 (100 mg/kg) QD, Day 28) was 55.2 and 90.09 and 97.9 and 77.44 and 95.04 and 77.19, the “Raw Tumor Measurements” value ([1]; Anti-PD-1 (200 ug)+SYN-115 (100 mg/kg) QD, Day 31) was 74.82 and 128.76 and 81.7 and 101.37 and 79.9 and the “Raw Tumor Measurements” value ([1]; Anti-PD-1 (200 ug)+SYN-115 (100 mg/kg) QD, Day 34) was 79.05 and 95.06 and 81.32. The “Raw Tumor Measurements” value ([1]; Anti-PD-1 (200 ug)+SYN-115 (100 mg/kg) QD, Day 39) was 81.9 and 104.86 and 82.95, the “Raw Tumor Measurements” value ([1]; Anti-PD-1 (200 ug)+SYN-115 (100 mg/kg) QD, Day 42) was 127.33 and 132.24 and the “Tumor size (width * length)” value ([2]; 2A3 (200 μg/Mouse)+SYN-115 (100 mg/kg), Day 39) was 123.2 mm^2 and 91.35 mm^2 and 103.88 mm^2. The “Tumor size (width * length)” value ([2]; 2A3 (200 μg/Mouse)+SYN-115 (100 mg/kg), Day 45) was 143 mm^2, the “Tumor size (width * length)” value ([2]; Anti-PD-1 (200 ug)+SYN-115 (10 mg/kg), Day 50) was 48.38 mm^2 and 66.22 mm^2 and the “Tumor size (width * length)” value ([2]; Anti-PD-1 (200 ug)+SYN-115 (10 mg/kg), Day 53) was 53.6 mm^2 and 83.72 mm^2. The “Tumor size (width * length)” value ([2]; Anti-PD-1 (200 ug)+SYN-115 (10 mg/kg), Day 57) was 63.19 mm^2 and 81.6 mm^2, the “Tumor size (width * length)” value ([2]; Anti-PD-1 (200 ug)+SYN-115 (10 mg/kg), Day 60) was 72.72 mm^2 and 80.04 mm^2 and the “Tumor size (width * length)” value ([2]; Anti-PD-1 (200 ug)+SYN-115 (10 mg/kg), Day 64) was 91.64 mm^2 and 104.86 mm^2. The “Tumor size (width * length)” value ([2]; Anti-PD-1 (200 ug)+SYN-115 (10 mg/kg), Day 68) was 121.26 mm^2, the “Tumor size (width * length)” value ([2]; Anti-PD-1 (200 ug)+SYN-115 (30 mg/kg), Day 57) was 75.24 mm^2 and 44.22 mm^2 and the “Tumor size (width * length)” value ([2]; Anti-PD-1 (200 ug)+SYN-115 (30 mg/kg), Day 60) was 89.25 mm^2 and 48.28 mm^2. For the same molecule, the “Tumor size (width * length)” value ([2]; Anti-PD-1 (200 ug)+SYN-115 (30 mg/kg), Day 64) was 107.1 mm^2 and 69.52 mm^2, the “Tumor size (width * length)” value ([2]; Anti-PD-1 (200 ug)+SYN-115 (30 mg/kg), Day 68) was 92.22 mm^2 and the “Tumor size (width * length)” value ([2]; Anti-PD-1 (200 ug)+SYN-115 (100 mg/kg), Day 45) was 101 mm^2 and 129.71 mm^2 and 75.84 mm^2. For the same molecule, the “Tumor size (width * length)” value ([2]; Anti-PD-1 (200 ug)+SYN-115 (100 mg/kg), Day 50) was 136.4 mm^2, the “Number of Tumor Metastases (lung), individual mice” value ([3]; 100 mg/kg once-daily oral gavage days 0 to 13, counted day 14, Batch 71236AA002) was 53 and 108 and 107 and 61 and 72 and 64 and 40 and 24 and 56 and 82 and the “Efficacy on tumor metastases” value ([3]; SYN-115 100 mg/kg once-daily oral, days 0 to 13) was “No efficacy”.
